Structures can show the parent of a compound that is named as a salt. Where two headings read alike, the source gives them in different places.

Here are results for 19 compounds from patent publication US8629277B2, “Styrenyl 1,2,4-oxadiazole compounds” (Piramal Enterprises Limited, priority 2010, dated 2014).

One experiment deals with T1, Ba/F3 Bcr-Abl/WT (Homo sapiens, UniProt P00519).
T1 construct: fused on or other part: P11274 (Breakpoint cluster region protein)
Kind of experiment: Cell proliferation and cytotoxicity CCK-8 assay. In kind it is cell-based. The conditions noted are these: imatinib sensitive cell line; CCK-8, 72 h; read-out: Inhibitory concentrations (IC50) Ba/F3 Bcr-Abl/WT. An excerpt: (§1) Cell Proliferation and Cytotoxicity CCK-8 Assay:
(§2) Cell Counting Kit-8 (CCK-8) assay is a sensitive colorimetric assay for the determination of number of viable cells in cell proliferation and cytotoxicity assays. Cell Counting Kit-8 (CCK-8) utilizes Dojindo's highly water-soluble tetrazolium salt. The amount of the formazan dye generated by dehydrogenases in cells is directly proportional to the number of living cells.
(§3) The cell lines described in Table 1 were used to test the antiproliferative activity of the compounds of the present invention.
(§4) Cells were seeded at a density of ˜5×10^3 per well (0.09 mL) in a transparent 96-well tissue culture plate (NUNC, USA) and allowed to incubate at 37° C., 5% CO2 incubator for 2-6 h. Different concentrations of compounds of the present invention were added to the wells of the culture plate in triplicate. […] Plates were further incubated in an incubator at 37° C. in presence of 5% CO2 for 72 h. 10 μL of the CCK-8 solution was added to each well and plate was incubated for 1-4 h in the incubator. The absorbance was measured at 450 nm using a microplate reader. The percent inhibition and IC50 were calculated in comparison with control values.
(In general: Tetrazolium dyes change colour on reduction, which living cells bring about.)

For experiment [1], the system named is K562. Kind of experiment: Cell proliferation and cytotoxicity CCK-8 assay. It is filed as cell-based, human. The conditions noted are these: imatinib sensitive cell line K562, CCK-8, 72 h, read-out: Inhibitory concentrations (IC50) K562.
A further experiment has as its target Ba/F3 Bcr-Abl/T315I (Homo sapiens, UniProt P00519, T315I, cells depend on it). Conditions: read-out: Inhibitory concentrations (IC50) Ba/F3 Bcr-Abl/T315I; imatinib resistant cell line; CCK-8, 72 h.
Excerpt: as §1, §2, §3, §4

In the next experiment the test system is T315I. Kind of experiment: Flow cytometric analysis of apoptosis (PI staining). It is filed as cell-based. On the procedure:
(§5) Effect of the Compounds of Present Invention in Bcr-Abl Mutated Imatinib Mesylate-Resistant Cell Lines on Cell Cycle and Apoptosis Using Flow Cytometry.
(§6) The assay was carried out as in reference, FEBS Letters, 2007, 581, 7, 1329-1334. […] At the end of incubation, cells were harvested by centrifugation at 1000 rpm for 10 minutes, washed with phosphate buffered saline (PBS) and gradually resuspended in 70% ice-cold ethanol (to facilitate the permeablisation of stains). Cell suspension was stored for a minimum period of 4 h before staining with propidium iodide (PI). Fixed cells were stained with PI (80 μg/mL) in presence of RNase A (50 μg/mL), and read on Becton Dickinson FACS Calibur (USA) for cell cycle analysis.

The test system of another experiment is Y253. The experiment is described as above. In kind it is cell-based. On the procedure: as §5, §6
The test system of another experiment is E255V. The description is as above. It is filed as cell-based. On the procedure: as §5, §6
Another experiment concerns Ba/F3. The description is as above. In kind it is cell-based. On the procedure:
as §5, §6

The subject of experiment [2] is K562. The description is as above. It is filed as cell-based, human. On the procedure:
as §5, §6

Turning to `CCCCCCc1noc(C=Cc2ccc(O)c(O)c2)n1` [Compound of Example 43], the GI50 at Ba/F3 Bcr-Abl/WT and on Ba/F3 Bcr-Abl/T315I was < 10 µM each time. The IC50 in the experiment on K562 [1] was < 10 µM.
`CCCc1nc(C=Cc2ccc(O)c(N)c2)no1` [Compound of Example 12, 2-Amino-4-[2-(5-propyl-[1,2,4]oxadiazol-3-yl)-vinyl]-phenol]: the GI50 at Ba/F3 Bcr-Abl/WT is 11 to 100 µM; on Ba/F3 Bcr-Abl/T315I, < 10 µM. Besides, the IC50 in the experiment on K562 [1] (Homo sapiens) lay within 11 to 100 µM.
Consider `Cc1ccc(NC(=O)c2ccc(CN3CCN(C)CC3)cc2)cc1Nc1nccc(-c2cccnc2)n1` [imatinib mesylate, Imatinib mesylate, reference compound], for which the “% Apoptosis by Flow Cytometry Analysis” value in the experiment on T315I (3X IC50, 96 h time point) is on record as 26.6%; in the experiment with T315I (5X IC50, 48 h time point) it was 4.3%; in the experiment on T315I (5X IC50, 96 h time point) it was 25.2%; in the experiment with Y253 (3X IC50, 96 h time point) it was 85.2%; in the experiment with Y253 (5X IC50, 48 h time point), 78%; in the experiment on Y253 (5X IC50, 96 h time point), 98.2%. In addition, the “% Apoptosis by Flow Cytometry Analysis” value with E255V (3X IC50, 96 h time point) turned out to be 61%; with E255V (5X IC50, 48 h time point), 96.7%; with E255V (5X IC50, 96 h time point), 98.4%; in the experiment with Ba/F3 (3X IC50, 96 h time point), 51%; with Ba/F3 (5X IC50, 48 h time point), 40.3%; with Ba/F3 (5X IC50, 96 h time point), 31%. In addition, the “% Apoptosis by Flow Cytometry Analysis” value with K562 [2] (3X IC50, 96 h time point) is 95%; in the experiment on K562 [2] (5X IC50, 48 h time point), 3.9%; with K562 [2] (5X IC50, 96 h time point), 92.6%.
`CN(C)CCN1CCC(Cc2noc(C=Cc3ccc(O)c(O)c3)n2)CC1` [Compound of Example 24, 4-(2-{3-[1-(2-Dimethylamino-ethyl)-piperidin-4-ylmethyl]-[1,2,4]oxadiazol-5-yl}-vinyl)-benzene-1,2-diol]: the GI50 at Ba/F3 Bcr-Abl/WT and at Ba/F3 Bcr-Abl/T315I was 11 to 100 µM each time. Further, the IC50 with K562 [1] (Homo sapiens) lay in the range of 11 to 100 µM.
On to `CCCc1noc(C=Cc2ccc(O)c(NS(C)(=O)=O)c2)n1` [Compound of Example 10, N-{2-Hydroxy-5-[2-(3-propyl-[1,2,4]oxadiazol-5-yl)-vinyl]-phenyl}-methanesulfonamide], for which the GI50 at Ba/F3 Bcr-Abl/WT and at Ba/F3 Bcr-Abl/T315I was 11 to 100 µM in each case. Moreover, the IC50 in the experiment on K562 [1] (Homo sapiens) is > 100 µM.
In the case of `CCCCCCCCCc1noc(C=Cc2ccc(O)c(O)c2)n1` [Compound of Example 34, 4-[2-(3-Nonyl-[1,2,4]oxadiazol-5-yl)-vinyl]-benzene-1,2-diol], the GI50 at Ba/F3 Bcr-Abl/WT and at Ba/F3 Bcr-Abl/T315I was < 10 µM each time. Also, in the experiment on K562 [1] (Homo sapiens), the IC50 is 11 to 100 µM.
In the case of `Oc1ccc(C=Cc2nc(CC3CCN(Cc4ccccc4)CC3)no2)cc1O` [Compound of Example 31, 4-{2-[3-(1-Benzyl-piperidin-4-ylmethyl)-[1,2,4]oxadiazol-5-yl]-vinyl}-benzene-1,2-diol], the GI50 on Ba/F3 Bcr-Abl/WT and on Ba/F3 Bcr-Abl/T315I was 11 to 100 µM in each case. The IC50 in the experiment on K562 [1] (Homo sapiens) fell in the range of 11 to 100 µM.
For `CCCCCCCCc1noc(C=Cc2ccc(O)c(O)c2)n1` [Compound of Example 49, 4-[2-(3-Octyl-[1,2,4]oxadiazol-5-yl)-vinyl]-benzene-1,2-diol], the GI50 on Ba/F3 Bcr-Abl/WT and on Ba/F3 Bcr-Abl/T315I was < 10 µM each time. In addition, the IC50 in the experiment on K562 [1] (Homo sapiens) is < 10 µM.
As to `CN1CCC(c2noc(C=Cc3ccc(O)c(O)c3)n2)CC1` [Compound of Example 20, 4-[2-(3-Piperidin-4,1-methyl-[1,2,4]oxadiazol-5-yl)-vinyl]-benzene-1,2-diol], the GI50 at Ba/F3 Bcr-Abl/WT and on Ba/F3 Bcr-Abl/T315I was 11 to 100 µM each time. The IC50 in the experiment with K562 [1] fell in the range of 11 to 100 µM.
As to `CCc1noc(C=Cc2ccc(O)c(O)c2)n1` [Compound of Example 2, 4-[2-(3-Ethyl-[1,2,4]oxadiazol-5-yl)-vinyl]-benzene-1,2-diol], the GI50 on Ba/F3 Bcr-Abl/WT and at Ba/F3 Bcr-Abl/T315I was < 10 µM each time. Besides, the IC50 in the experiment with K562 [1] (Homo sapiens) was < 10 µM.
Take `Oc1ccc(C=Cc2nc(CC3CCCCC3)no2)cc1O` [Compound of Example 46, 4-[2-(3-Cyclohexylmethyl-[1,2,4]oxadiazol-5-yl)-vinyl]-benzene-1,2-diol]: the GI50 at Ba/F3 Bcr-Abl/WT and at Ba/F3 Bcr-Abl/T315I was < 10 µM throughout. For the same compound, in the experiment with K562 [1] (Homo sapiens), the IC50 is < 10 µM.
With `CC(C)N1CCC(Cc2noc(C=Cc3ccc(O)c(O)c3)n2)CC1` [Compound of Example 22, 4-{2-[3-(1-Isopropyl-piperidin-4-ylmethyl)-[1,2,4]oxadiazol-5-yl]-vinyl}-benzene-1,2-diol], the GI50 at Ba/F3 Bcr-Abl/WT and at Ba/F3 Bcr-Abl/T315I was 11 to 100 µM in each case. The IC50 with K562 [1] (Homo sapiens) was in the range of 11 to 100 µM.
As for `Oc1ccc(C=Cc2nc(C3CCCCC3)no2)cc1O` [Compound of Example 61, 4-[2-(3-Cyclohexyl-[1,2,4]oxadiazol-5-yl)-vinyl]-benzene-1,2-diol], the GI50 on Ba/F3 Bcr-Abl/WT and on Ba/F3 Bcr-Abl/T315I was < 10 µM throughout. Also, the IC50 in the experiment on K562 [1] (Homo sapiens) fell in the range of 11 to 100 µM.
Consider `CCCCCc1noc(C=Cc2ccc(O)c(O)c2)n1` [Compound of Example 40, 4-[2-(3-Pentyl-[1,2,4]oxadiazol-5-yl)-vinyl]-benzene-1,2-diol], for which the GI50 at Ba/F3 Bcr-Abl/WT and on Ba/F3 Bcr-Abl/T315I was < 10 µM in each case. Also, the IC50 in the experiment on K562 [1] (Homo sapiens) was < 10 µM.
Turning to `Cc1noc(C=Cc2ccc(O)c(O)c2)n1` [Compound of Example 1, 4-[2-(3-Methyl-[1,2,4]oxadiazol-5-yl)-vinyl]-benzene-1,2-diol], the GI50 at Ba/F3 Bcr-Abl/WT and at Ba/F3 Bcr-Abl/T315I was 11 to 100 µM throughout. For the same compound, in the experiment on K562 [1] (Homo sapiens), the IC50 is 11 to 100 µM.
As for `Oc1ccc(C=Cc2nc(C3CC3)no2)cc1O` [Compound of Example 37, 4-[2-(3-Cyclopropyl-[1,2,4]oxadiazol-5-yl)-vinyl]-benzene-1,2-diol], the GI50 at Ba/F3 Bcr-Abl/WT and on Ba/F3 Bcr-Abl/T315I was < 10 µM each time. The IC50 in the experiment on K562 [1] (Homo sapiens) was < 10 µM.
For the compound `CCCCCCCc1noc(C=Cc2ccc(O)c(O)c2)n1` [Compound of Example 52, 4-[2-(3-Heptyl-[1,2,4]oxadiazol-5-yl)-vinyl]-benzene-1,2-diol], the GI50 at Ba/F3 Bcr-Abl/WT and on Ba/F3 Bcr-Abl/T315I was < 10 µM each time. For the same compound, the IC50 in the experiment on K562 [1] (Homo sapiens) is < 10 µM.
Consider `Oc1ccc(C=Cc2nc(-c3cccnc3)no2)cc1O` [Compound of Example 55, 4-[2-(3-Pyridin-3-yl-[1,2,4]oxadiazol-5-yl)-vinyl]-benzene-1,2-diol], for which the GI50 at Ba/F3 Bcr-Abl/WT and at Ba/F3 Bcr-Abl/T315I was < 10 µM each time. Moreover, the IC50 in the experiment on K562 [1] (Homo sapiens) was in the range of 11 to 100 µM.
As for `Oc1ccc(C=Cc2nc(C3CCCCCC3)no2)cc1O` [Compound of Example 58, 4-[2-(3-Cycloheptyl-[1,2,4]oxadiazol-5-yl)-vinyl]-benzene-1,2-diol], the GI50 at Ba/F3 Bcr-Abl/WT and at Ba/F3 Bcr-Abl/T315I was < 10 µM each time. Besides, in the experiment with K562 [1] (Homo sapiens), the IC50 is 11 to 100 µM.
